Test results published in US5349127A, “Expression of herbicide metabolizing cytochromes P450” (priority 1992, dated 1994).

Legend:
[1] = test system: S. griseolus ATCC 11796 induced with 10001; test: Sulfonylurea metabolism by washed cell suspension (Examples 5-9); type: in vitro ADME, Streptomyces griseolus
[2] = Incubation buffer without cells, time 0 (Examples 5-9, 11, 12); type: in vitro ADME; conditions: no cells, 0 h
Description: A 100 ml culture of S. griseolus ATCC 11796 in sporulation broth and a 50 ml culture of S. lividans transformed with pCAO400 in YEME broth were prepared and incubated for 24 hours as described. At that time, the S. griseolus culture was split into two 50 ml aliquots into two separate flasks and 25 ml of fresh sporulation broth was added to each and 9 mg of […] was added to one of these cultures to induce cytochrome P450SU1 expression. Fresh YEME broth (25 ml) was added to the S. lividans culture. After an additional 6 hours growth at 30° C., the cells in each culture were harvested as described above, washed twice with MOPS (50 mM, pH 7.2) and recentrifuged. The cell pellets were resuspended in four cell volumes of MOPS (50 mM, pH 7.2) containing 0.2% glucose and about 100 μg/ml of 10004. These cell suspensions were incubated at 30° C. with shaking and aliqouts were taken at 2 and 5.5 hours. The supernatant of each aliquot was analyzed by HPLC and the concentrations of the sulfonylurea compound 10004 and its metabolite 10005 were determined.
S. lividans transformed respectively with pCAO200SU1-FeS-B#9, pCAO200SU#112and pCAO200 were cultured for 36 hours in 400 ml of YEME broth at 30° C. S. griseolus ATCC 11796 was similarly cultured in 400 ml of sporulation broth. Six hours before harvesting the cells, 150 ml of fresh YEME broth was added to the S. lividans cells, and the S. griseolus cells were split into two 200 ml cultures with 100 ml of fresh sporulation broth added to each. 10001 (36 mg) was added to one of the two S. griseolus cultures to induce cytochrome P450SU1. The cells were prepared as described above in Example 5 and the concentrations of the sulfonylurea compound 10006 and its metabolites 10007, 10008 or 10009 were determined.
S. lividans transformed with pCAO200SU2-FeS-A#11 and S. lividans transformed with pCAO200 were cultured for 36 hours in 400 ml of YEME broth at 30° C. S. griseolus PH2001 (mutant without SU1) was cultured in 400 ml of sporulation broth at 30° C. Nine hours before harvesting the cells, the S. griseolus PH2001 culture was divided into two 200 ml cultures. Both received 100 ml of fresh sporulation broth and one received 36 mg of 10001 to induce cytochrome P450SU2. The cells were prepared as described above in Example 6 and the concentrations of the sulfonylurea compound 10001 and its metabolites 10002 and 10003 were determined.

[3] = test system: S. ambofaciens PH4002; test: Metabolism of 10001 by untransformed strain (Example 14); type: in vitro ADME, Streptomyces ambofaciens; conditions: substrate 10001 120 ug/ml
[4] = test system: S. lividans pCAO200SU1#12; test: Sulfonylurea metabolism by washed cell suspension (Examples 6-9); type: in vitro ADME, Streptomyces lividans
[5] = test system: Tomato seedlings (Lycopersicon esculentum cv. Pixie); test: Tomato transplants in herbicide-treated soil after bacterial pretreatments (Example 18); type: in vivo; conditions: for Shoot Fresh Weight (mean of five plants): 22 days
Description: One liter cultures of S. griseolus ATCC 11796, S. lividans pCAO200, S. lividans pCAO200-#9-SU1-FeS-B or S. lividans pCAO200-#12-SU1 were grown in YEME medium (sporulation broth for the S. griseolus culture) at 30° C. until the cultures were in late log phase of growth and the absorbance of each culture in a spectrophotometer at a wavelength of 600 nm was between 1.0 and 1.3. Tomato seedlings (Lycopersicon esculentum cv. "Pixie") were seeded directly into soiless media, Oasis Wedges® (Smithers-Oasis, Kent, Ohio), fertilized with 500 ppm Peter's® fertilizer (20:19:18); and 300 ppm of iron was added weekly. As the tomato plants develop, roots ramify through the Oasis Wedges®. The tomato plants were transplanted to pots when they were 4 inches tall as follows.
Five inch standard round pots (without holes) were filled with Sassafras sandy loam (ph 6.7, 0.8% OM) and a single Oasis cube and then treated preemergence with either Classic® (10001) 25 DF (16, 32, 64, 125 and 250 grams active ingredient/hectare [g ai/ha]) or Oust® (10010) 75 DF at rates of 4, 8, 16, 32 and 64 g ai/ha), both herbicides available from E. I. du Pont de Nemours and Company, Wilmington, Del. The oasis cube was then removed and replaced by a transplant tomato dipped in either the cultures described above of S. griseolus ATCC 11796 (treatment A), S. lividans pCAO200 (treatment B), S. lividans pCAO200-#9-SU1-FeS-B (treatment C), S. lividans pCAO200-#12-SU1 (treatment D) or into water (treatment E). Five transplants were tested for each treatment at each dosage rate. The pots were placed on a greenhouse bench for 22 days and watered twice daily, after which shoot fresh weights of treatments were determined. Roots of these treatments and controls were examined too. Plants, soil and pots treated with bacterial cultures were double bagged and disposed by incineration.

Compound `COc1cc(Cl)nc(NC(=O)NS(=O)(=O)c2ccccc2C(=O)O)n1` [compound 10003, N-[(4-chloro-6-methoxy-pyrimidin-2-yol)aminocarbonyl]-2-carboxybenzenesulfonamide] has a concentration in supernatant ([1]; substrate 10001, 2 h) of 76 µM, a concentration in supernatant ([1]; substrate 10001, 4 h) of 128 µM and a concentration in supernatant ([1]; substrate 10001, 6 h) of 142 µM. It also gave a concentration in supernatant ([2]; Example 8, substrate 10001) of 0 µM, a concentration in supernatant ([2]; Example 11, substrate 10001) of 0 µM and a concentration in supernatant ([3]; 1.0 h) of 0 nM. For the same compound, the concentration in supernatant ([3]; 4.0 h) was 0 nM, the concentration in supernatant ([4]; substrate 10001, 2 h) was 2 µM and the concentration in supernatant ([4]; substrate 10001, 4 h) was 4 µM. For the same compound, the concentration in supernatant ([4]; substrate 10001, 6 h) was 5 µM.
For `COC(=O)c1ccccc1S(=O)(=O)NC(=O)Nc1nc(C)cc(C)n1` [compound 10010, N-[(4,6-dimethylpyrimidin-2-yl)aminocarbonyl]-2-methoxycarbonylbenzenesulfonamide], the “Shoot Fresh Weight (mean of five plants)” value ([5]; 4 g ai/ha, Pretreatment A (Streptomyces griseolus ATCC11796)) was 1.16 grams, the “Shoot Fresh Weight (mean of five plants)” value ([5]; 4 g ai/ha, Pretreatment B (Streptomyces lividans pCAO200)) was 0.73 grams and the “Shoot Fresh Weight (mean of five plants)” value ([5]; 4 g ai/ha, Pretreatment C (S. lividans pCAO200#9SU1-FeS-B)) was 0.88 grams. For the same compound, the “Shoot Fresh Weight (mean of five plants)” value ([5]; 4 g ai/ha, Pretreatment D (S. lividans pCAO200#12SU1)) was 0.88 grams, the “Shoot Fresh Weight (mean of five plants)” value ([5]; 4 g ai/ha, Pretreatment E (water)) was 2.00 grams and the “Shoot Fresh Weight (mean of five plants)” value ([5]; 8 g ai/ha, Pretreatment A (Streptomyces griseolus ATCC11796)) was 0.58 grams. For the same compound, the “Shoot Fresh Weight (mean of five plants)” value ([5]; 8 g ai/ha, Pretreatment B (Streptomyces lividans pCAO200)) was 0.69 grams, the “Shoot Fresh Weight (mean of five plants)” value ([5]; 8 g ai/ha, Pretreatment C (S. lividans pCAO200#9SU1-FeS-B)) was 1.02 grams and the “Shoot Fresh Weight (mean of five plants)” value ([5]; 8 g ai/ha, Pretreatment D (S. lividans pCAO200#12SU1)) was 0.75 grams. For the same compound, the “Shoot Fresh Weight (mean of five plants)” value ([5]; 8 g ai/ha, Pretreatment E (water)) was 0.65 grams, the “Shoot Fresh Weight (mean of five plants)” value ([5]; 16 g ai/ha, Pretreatment A (Streptomyces griseolus ATCC11796)) was 0.32 grams and the “Shoot Fresh Weight (mean of five plants)” value ([5]; 16 g ai/ha, Pretreatment B (Streptomyces lividans pCAO200)) was 0.65 grams. The “Shoot Fresh Weight (mean of five plants)” value ([5]; 16 g ai/ha, Pretreatment C (S. lividans pCAO200#9SU1-FeS-B)) was 0.98 grams, the “Shoot Fresh Weight (mean of five plants)” value ([5]; 16 g ai/ha, Pretreatment D (S. lividans pCAO200#12SU1)) was 0.56 grams and the “Shoot Fresh Weight (mean of five plants)” value ([5]; 16 g ai/ha, Pretreatment E (water)) was 0.39 grams. The “Shoot fresh weight in treatment C versus the other treatments” value ([5]; 32, 64 and 125 g ai/ha of 10001 or 16 and 32 g ai/ha of 10010) was 2-3 times greater, the “Shoot Fresh Weight (mean of five plants)” value ([5]; 32 g ai/ha, Pretreatment A (Streptomyces griseolus ATCC11796)) was 0.33 grams and the “Shoot Fresh Weight (mean of five plants)” value ([5]; 32 g ai/ha, Pretreatment B (Streptomyces lividans pCAO200)) was 0.42 grams. For the same compound, the “Shoot Fresh Weight (mean of five plants)” value ([5]; 32 g ai/ha, Pretreatment C (S. lividans pCAO200#9SU1-FeS-B)) was 1.01 grams, the “Shoot Fresh Weight (mean of five plants)” value ([5]; 32 g ai/ha, Pretreatment D (S. lividans pCAO200#12SU1)) was 0.62 grams and the “Shoot Fresh Weight (mean of five plants)” value ([5]; 32 g ai/ha, Pretreatment E (water)) was 0.28 grams. The “Shoot Fresh Weight (mean of five plants)” value ([5]; 64 g ai/ha, Pretreatment A (Streptomyces griseolus ATCC11796)) was 0.30 grams, the “Shoot Fresh Weight (mean of five plants)” value ([5]; 64 g ai/ha, Pretreatment B (Streptomyces lividans pCAO200)) was 0.39 grams and the “Shoot Fresh Weight (mean of five plants)” value ([5]; 64 g ai/ha, Pretreatment C (S. lividans pCAO200#9SU1-FeS-B)) was 0.46 grams. The “Shoot Fresh Weight (mean of five plants)” value ([5]; 64 g ai/ha, Pretreatment D (S. lividans pCAO200#12SU1)) was 0.29 grams, the “Shoot Fresh Weight (mean of five plants)” value ([5]; 64 g ai/ha, Pretreatment E (water)) was 0.34 grams and the concentration in supernatant ([1]; substrate 10010, 2 h) was 40 µM. It also gave a concentration in supernatant ([1]; substrate 10010, 4 h) of 8 µM, a concentration in supernatant ([1]; substrate 10010, 6 h) of 4 µM and a concentration in supernatant ([2]; Example 7, substrate 10010) of 87 µM. The concentration in supernatant ([2]; Example 12, substrate 10010) was 88 µM, the concentration in supernatant ([4]; substrate 10010, 2 h) was 90 µM and the concentration in supernatant ([4]; substrate 10010, 4 h) was 85 µM. The concentration in supernatant ([4]; substrate 10010, 6 h) was 80 µM.
For `CCOC(=O)c1ccccc1S(=O)(=O)NC(=O)Nc1nc(O)cc(Cl)n1` [compound 10002, N-[(4-chloro-6-hydroxy-pyrimidin-2-yl)aminocarbonyl]-2-ethoxycarbonylbenzenesulfonamide], the concentration in supernatant ([4]; substrate 10001, 2 h) was 2 µM, the concentration in supernatant ([4]; substrate 10001, 4 h) was 4 µM and the concentration in supernatant ([4]; substrate 10001, 6 h) was 6 µM.
